The values that follow come from patent publication EP0085866A1, “Derivatives of benzo-1,2-thiazine-1,1-dioxide, a process for their preparation and pharmaceutical compositions containing the same” (priority 1982, dated 1983).

Each structure is given as a SMILES string. Read-outs that look alike come from different tables or passages of the source.

Series [1] relates to writhing test by phenylquinone in the mouse. Put plainly: Writhing test by phenylquinone. It counts as in vivo. Particulars: on molar basis, times as active as piroxicam. From the text:
(§1) In other tests of direct comparison between piro xicam and CHF 1021, the latter confirmed its anti inflammatory activity, along with a good analgesic and antipiretic activity.

The test system of a further series is gastric mucosa. Description: Gastrolesive activity (macroscopic control of the gastric mucosa). It counts as in vivo, Crl: CD(SD) male rats. Particulars: for Therapeutic index UD3/ED30 / Gastrolesive activity UD3: oral route, exp. session I and II (r4-r7); for Therapeutic index UD3/ED30: rat; for Gastrolesive activity UD3: dose expected to give gastric lesion of total extension of 3 mm, 7 hours after administration; for improvement of tolerability (in words): versus parent compound piroxicam. From the text:
On the ground of such lines the calculation of UD3 values, that is a dose whereby a gastric lesion of the total extension of 3 mm is expected, has been performed.

The nature of series [2]: Preliminary clinical data. It counts as in vivo.
Series [3] deals with oedema induced in the rat's paw by carrageenin. Description: Antiinflammatory activity in the test of plantar edema by carrageenin. It counts as in vivo, Crl: CD(SD) male rats. Particulars: for ED30: Rattus norvegicus, po; for antiinflammatory activity (in words): comparison with piroxicam, rat. On the procedure:
Crl: CD(SD) male rats, weighing 170-205 g, previously subjected to an acclimation period of at least one week through housing in environment with co.stant thermohygrometric conditions and fa sting with water ad libitum 18 hours before the start of the test, have been distributed "at ran dom" in groups of 5-6 animals each (4 groups cor responding to 4 different dose levels for each compound). A group of control animals has been treated only with the vehicle. […] Soc. Exp. Biol. Med. 111, 544, 1962). The volume of the treated paw has been measured by means of a water-mercury pletismometer according to Leuce P., Arch. Int. Pharmacodyn. 136, 237, 1962) immediately before and at different […] injection of the phlogogenic agent. The results have been expressed as ED30 values calculated on the logarithmic regression straight lines of the percent dose/inhibition of the oedema development, in turn determined from the ratio between the mean AUC value (area under the curve representing the development of the paw volume in the time) in the different treated animals groups and the respective control groups.

For the next series, the system named is male mice IVA:NMRI (SPF). Put plainly: Acute toxicity by single oral administration. It counts as in vivo. To be noted: versus piroxicam. On the procedure: (§2) The toxicity by single administration has been determined by oral route in male mice IVA:NMRI (SPF), fasting, with water ad libitum 18 hours before the experiment. The substances under exam were suspended in 1% carboxymethylcellulose.

Series [4] can be described thus: Acute toxicity by single oral administration. It counts as in vivo. Particulars: mouse, in vivo. On the procedure:
as §2

The next series concerns fever by beer's yeast. Description: Fever by beer's yeast. It counts as in vivo, reat. Particulars: on molar basis, times as active as piroxicam.
Text: as §1

Series [5] has as its system erythema by U.V. in the guinea pig. Put plainly: Erythema by U.V. It counts as in vivo. To be noted: on molar basis, times as active as piroxicam.
Text: as §1

The subject of series [6] is plantar oedema by nystatin in the rat. Description: Plantar oedema by nystatin. It counts as in vivo. Particulars: on molar basis, times as active as piroxicam.
Text: as §1

The test system of series [7] is arthritis by adjuvant in the rat. Description: Arthritis by adjuvant. It counts as in vivo. To be noted: direct comparison with piroxicam.
Text: as §1

The mark [8] stands for this setting: 1 hour before carrageenin, from inhibition of oedema AUC, exp. session I and II (r4-r7).
The mark [9] stands for this setting: single administration, oral route, fasting male mice, suspended in 1% carboxymethylcellulose, interpolation on Probit paper, read-out: Approx. LD50.

Usually LD50 stands for the dose at which mortality reaches 50%. As to `CN1C(C(=O)Nc2ccccn2)=C(OC(=O)C(C)(C)C)c2ccccc2S1(=O)=O` [CHF 1021, 4-Pivaloyloxy-2-methyl-2H-1,2-benzothiazine-3-[N-(2-pyridyl)-carboxamide]-1,1-dioxide], the “potency ratio (ratio between ED50 values)” value came to 0.72 in series [1], 0.71 in the series with fever by beer's yeast, 0.49 in series [5] and 1.52 in [6]. Besides, the “Therapeutic index UD3/ED30” value with gastric mucosa is 12.3. In addition, the “Gastrolesive activity UD3” value in the series on gastric mucosa was determined as 97.2 µmol/kg. In addition, the “ulcerogenic activity, times lower in comparison to the reference compound” value in the series with gastric mucosa (versus piroxicam) was “at least 10 times”. In addition, in series [2], the “antiinflammatory activity in comparison with piroxicam (in words)” value is reported as “practically equally active”. Moreover, the “incidence of side effects relative to the reference drug” value in series [2] (fraction of that of piroxicam) is “about 1/3”. Moreover, the ED30 in series [3] (setting [8]) came out at 7.9 µmol/kg. Also, in series [3] (oral route), the “antiinflammatory activity (in words)” value is given as “comparable to the one of the reference compound”. Besides, the “acute toxicity, lower in comparison to the reference compound” value in the series on male mice IVA:NMRI (SPF) was “about 35%”. Further, the LD50 in [4] (setting [9]) is 1800 mg/kg. Also, the “activity on the arthritis by adjuvant (in words)” value in series [7] is “almost equally active”.
On to `CN1C(C(=O)Nc2nccs2)=C(OC(=O)C(C)(C)C)c2ccccc2S1(=O)=O` [CHF 1047, 4-pivaloyloxy-2-methyl-2H-1,2-benzothiazine-3-[N-(2-thiazolyl)-carboxamide]-1,1-dioxide], for which, in the series with gastric mucosa, the “Therapeutic index UD3/ED30” value worked out at 0.2 and the “Gastrolesive activity UD3” value turned out to be 121.2 µmol/kg. The molecule also displayed an ED30 in [3] (setting [8]) of about 762 µmol/kg. Also, the “antiinflammatory activity (in words)” value in series [3] (oral route) was “very low”. In addition, in series [4] (setting [9]), the LD50 was over 3000 mg/kg.
For `CCCCC(=O)OC1=C(C(=O)Nc2ccccn2)N(C)S(=O)(=O)c2ccccc21` [CHF 1109], in the series with gastric mucosa, the “Therapeutic index UD3/ED30” value was found to be 4.0, the “Gastrolesive activity UD3” value worked out at 28.2 µmol/kg and the “improvement of tolerability (in words)” value is “do not show an improvement”. The ED30 in series [3] (setting [8]) was determined as 7 µmol/kg. Also, in series [3] (oral route), the “antiinflammatory activity (in words)” value was “analogous or also slightly higher than the one of the parent compound”. In series [4] (po), this molecule returned an LD50 of 1100 mg/kg.
As for `CCCC(=O)OC1=C(C(=O)Nc2ccccn2)N(C)S(=O)(=O)c2ccccc21` [CHF 1115], in the series on gastric mucosa, the “Therapeutic index UD3/ED30” value came to 4.2, the “Gastrolesive activity UD3” value turned out to be 23.9 µmol/kg and the “improvement of tolerability (in words)” value was “do not show an improvement”. The ulcerogenic potency ratio with gastric mucosa (ratio to piroxicam taken as 1) stood at 0.88. This molecule had an ED30 in series [3] (setting [8]) of 5.7 µmol/kg. In addition, the “antiinflammatory activity (in words)” value in [3] (oral route) is “analogous or also slightly higher than the one of the parent compound”. Moreover, the LD50 in series [4] (po) stood at 880 mg/kg.
`CN1C(C(=O)Nc2ccccn2)=C(O)c2ccccc2S1(=O)=O` [piroxicam, reference compound]: the ED30 in series [3] (setting [8]) amounted to 7.8 µmol/kg. Further, the “Antiinflammatory activity ED30” value in [3] (oral route, 1 hour before carrageenin, from inhibition of oedema AUC, exp. session I and II (r4-r7)) was found to be 9.7 µmol/kg. Further, in [4] (setting [9]), the LD50 amounted to 345 mg/kg.
